Like-named read-outs stand apart in the source and are kept apart here.
System: Daudi-Cas9 cells
Test: Cancer-T cell co-culture genome-wide CRISPR knockout screen (Vγ9Vδ2 T cell killing)
Type: cell-based, human
[1] = MAGeCK sgRNA test, co-culture screen
[2] = log-fold change of sgRNA, surviving cells after co-culture vs baseline, MAGeCK
[3] = sgRNA abundance in surviving Daudi-Cas9 KO cells after 24 hours Vγ9Vδ2 T cell co-culture with zoledronate, MAGeCK
[4] = sgRNA enriched (TRUE) or depleted (FALSE) after T cell co-culture

| Substance | score [1] | LFC [2] | treat mean [3] | high_in_treatment [4] | LFC | high_in_treatment | score | treat mean |
| --- | --- | --- | --- | --- | --- | --- | --- | --- |
| RPP38_CGATTCTCTCACTGAGCCG: library sgRNA targeting RPP38 (as printed in the source, key not given here) | 7.8058 | −3.1996 | 558.49 | FALSE |  |  |  |  |
| SAE1_TGCTTCTTGTCGGCTTGAA: library sgRNA targeting SAE1 (listed as DNA, chemistry not fully specified) | 7.1879 | −7.4222 | 19.337 | FALSE |  |  |  |  |
| SARS2_GCACGGTGCTCACCACGTC: library sgRNA targeting SARS2 (chemistry not given here) |  |  |  |  | −3.8724 | FALSE | 6.2052 | 200.19 |
| SCO1_CACCCCCGTGGTCGCAGAA: library sgRNA targeting SCO1 (listed as DNA, chemistry not fully specified) | 10.413 | −3.6001 | 714.32 | FALSE |  |  |  |  |
| SH3GL1_ACTTCTGTCACCGCCTTGC: library sgRNA targeting SH3GL1 (listed as DNA, chemistry not fully specified) | 6.045 | −7.484 | 11.374 | FALSE |  |  |  |  |
| SHMT2_CAACCTCACGACCGGATCA: library sgRNA targeting SHMT2 (listed as DNA, chemistry not fully specified) | 5.9975 | −5.253 | 63.415 | FALSE |  |  |  |  |
| SHMT2_TGCTCGACTTTTCCGGCCA: library sgRNA targeting SHMT2 (listed as DNA, chemistry not fully specified) | 6.1486 | −3.7292 | 220.66 | FALSE |  |  |  |  |
| SLC2A4_CAGGTCTGAAGCGCCTGAC: library sgRNA targeting SLC2A4 (listed as DNA, chemistry not fully specified) | 6.0044 | 4.6166 | 47.773 | TRUE |  |  |  |  |
| SLC22A3_GCCTTCCTCTTCGTCGGCG: library sgRNA targeting SLC22A3 (listed as DNA, chemistry not fully specified) | 6.0158 | 1.0179 | 4633 | TRUE |  |  |  |  |
| SNF8_ACCATTGGCGTGGATCCGC: library sgRNA targeting SNF8 (as printed in the source, key not given here) | 6.4788 | −6.2459 | 35.261 | FALSE |  |  |  |  |
| SPI1_ATACTCGTGCGTTTGGCGT: library sgRNA targeting SPI1 (as printed in the source, key not given here) | 8.1546 | 1.1261 | 6915.7 | TRUE |  |  |  |  |
| SPI1_CACGTCCTCGATACCCCCA: library sgRNA targeting SPI1 (as printed in the source, key not given here) | 9.6891 | 1.4776 | 5441.8 | TRUE |  |  |  |  |
| SPIB_CCTCGTGGCTGGCCCCGAG: library sgRNA targeting SPIB (as printed in the source, key not given here) | 7.9175 | 1.2165 | 5523.4 | TRUE |  |  |  |  |
| SPIB_CGGGTCGAAGGCTTCATAG: library sgRNA targeting SPIB (as printed in the source, key not given here) | 6.9394 | 1.7479 | 1900.6 | TRUE |  |  |  |  |

Reference: patent US20240115705A1, “Regulation of Butyrophilin subfamily 3 member A1 (BTN3A1, CD277)” (The J. Gladstone Institutes, a testamentary trust …, priority 2021, published 2024)
